Patent publication US9902728B2, “Pyrrolo and pyrazolopyrimidines as ubiquitin-specific protease 7 inhibitors” (Forma Therapeutics, Inc., priority 2014, dated 2018)

Target: T1, USP7 (Homo sapiens, UniProt Q93009)
T1 construct: USP7, construct USP7 (208-1102) 6*His, Viva Biotech; 6xHis (C); purchased Viva Biotech
Experiment: USP7 Assay A (Ubitquin-Rhodamine 110 Assay)
Format: biochemical
Details: USP7 activity in USP7 assay A and B (table does not say which assay per compound); read-out: USP7_IC50
Method in brief: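 Ub-Rh110 cleavage in 20 mM Tris-HCl pH 8.0 with 1 mM GSH, 0.03% BGG, 0.01% Triton X-100; compound preincubated with enzyme 30 min before substrate.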

T1 sequence (Q93009 208-1102): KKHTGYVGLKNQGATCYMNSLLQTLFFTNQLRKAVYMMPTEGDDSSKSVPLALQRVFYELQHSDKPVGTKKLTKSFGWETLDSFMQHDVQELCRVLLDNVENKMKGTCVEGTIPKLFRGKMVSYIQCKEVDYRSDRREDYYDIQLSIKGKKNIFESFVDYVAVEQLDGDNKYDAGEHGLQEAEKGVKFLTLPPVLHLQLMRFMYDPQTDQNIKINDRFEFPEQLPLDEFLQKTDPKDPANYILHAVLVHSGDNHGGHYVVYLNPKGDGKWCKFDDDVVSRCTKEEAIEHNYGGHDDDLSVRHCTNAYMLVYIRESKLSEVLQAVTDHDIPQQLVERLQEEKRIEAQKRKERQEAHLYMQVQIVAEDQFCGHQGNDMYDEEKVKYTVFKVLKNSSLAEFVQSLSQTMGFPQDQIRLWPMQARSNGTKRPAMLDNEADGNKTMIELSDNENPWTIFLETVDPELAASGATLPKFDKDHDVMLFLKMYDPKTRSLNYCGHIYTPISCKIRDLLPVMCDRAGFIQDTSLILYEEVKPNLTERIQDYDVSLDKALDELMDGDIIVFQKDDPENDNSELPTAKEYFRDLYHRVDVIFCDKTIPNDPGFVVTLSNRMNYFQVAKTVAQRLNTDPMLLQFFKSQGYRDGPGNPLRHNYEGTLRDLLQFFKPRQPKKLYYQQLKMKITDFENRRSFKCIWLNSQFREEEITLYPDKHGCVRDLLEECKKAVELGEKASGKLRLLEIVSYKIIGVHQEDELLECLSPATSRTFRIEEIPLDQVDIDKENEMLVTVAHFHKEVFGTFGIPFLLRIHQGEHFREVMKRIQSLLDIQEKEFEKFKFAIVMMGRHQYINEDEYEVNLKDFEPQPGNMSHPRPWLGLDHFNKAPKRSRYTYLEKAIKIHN

Row | SMILES | IC50
1 | O=C(c1ccc(F)cc1)N1CCC(O)(Cn2cnc3c(cnn3-c3ccc(N4CCN5CCCC[C@@H]5C4)cc3)c2=O)CC1 [Compound I-484, (R)-5-((1-(4-fluorobenzoyl)-4-hydroxypiperidin-4-yl)methyl)-1-(4-(octahydro-2H-pyrido[1,2-a]pyrazin-2-yl)phenyl)-1,5-dihydro-4H-pyrazolo[3,4-d]pyrimidin-4-one] | < 200 nM
2 | O=C(OCCCN1CCCC1)N1CCC(O)(Cn2cnc3c(cnn3-c3ccc(F)cc3)c2=O)CC1 [Compound I-486, 3-(Pyrrolidin-1-yl)propyl 4-((1-(4-fluorophenyl)-4-oxo-1,4-dihydro-5H-pyrazolo[3,4-d]pyrimidin-5-yl)methyl)-4-hydroxypiperidine-1-carboxylate] | 1000 to 10000 nM
3 | O=C(c1ccc(N2CCN3CCCC3C2)cc1)N1CCC(O)(Cn2cnc3c(cnn3-c3ccc(F)cc3)c2=O)CC1 (stereo not shown) [Compound I-487] | 1000 to 10000 nM
4 | Cc1cnn(-c2ccc(-n3ncc4c(=O)n(CC5(O)CCN(C(=O)c6cnc(C)o6)CC5)cnc43)cc2)c1 [Compound I-488] | < 200 nM
5 | CC1(C(=O)N2CCC(O)(Cn3cnc4c(cnn4-c4ccc(-c5cnn(C(F)F)c5)cc4)c3=O)CC2)CC1 [Compound I-489] | 200 to 1000 nM
6 | CC1(C(=O)N2CCC(O)(Cn3cnc4c(cnn4-c4ccc(N5CCC6(CC5)CC(F)(F)C6)cc4)c3=O)CC2)CC1 [Compound I-490] | 200 to 1000 nM

Same assay, conditions: USP7 assay A and B (table does not say which assay per compound); read-out: USP7_IC50

Row | SMILES | IC50
7 | O=C(c1ccc(Cl)cc1)N1CCC(O)(Cn2cnc3c(cnn3-c3ccc(F)cc3)c2=O)CC1 [Compound I-302, 5-{[1-(4-chlorobenzoyl)-4-hydroxypiperidin-4-yl]methyl}-1-(4-fluorophenyl)-1H,4H,5H-pyrazolo[3,4-d]pyrimidin-4-one] | 200 to 1000 nM
8 | O=C(c1cccc(Cl)c1)N1CCC(O)(Cn2cnc3c(cnn3-c3ccc(F)cc3)c2=O)CC1 [Compound I-303] | 1000 to 10000 nM
9 | O=C(c1ccc(C2CC2)cc1)N1CCC(O)(Cn2cnc3c(cnn3-c3ccc(F)cc3)c2=O)CC1 [Compound I-304] | 1000 to 10000 nM
10 | O=C(c1ccc(OC(F)F)cc1)N1CCC(O)(Cn2cnc3c(cnn3-c3ccc(F)cc3)c2=O)CC1 [Compound I-306] | 1000 to 10000 nM
11 | O=C(c1ccc(F)c(F)c1)N1CCC(O)(Cn2cnc3c(cnn3-c3ccc(F)cc3)c2=O)CC1 [Compound I-309] | 1000 to 10000 nM
12 | Cc1ncoc1C(=O)N1CCC(O)(Cn2cnc3c(cnn3-c3ccc(F)cc3)c2=O)CC1 [Compound I-312] | 1000 to 10000 nM
13 | O=C(c1cnc(C2CC2)o1)N1CCC(O)(Cn2cnc3c(cnn3-c3ccc(F)cc3)c2=O)CC1 [Compound I-314] | 200 to 1000 nM
14 | CN(C)c1ncc(C(=O)N2CCC(O)(Cn3cnc4c(cnn4-c4ccc(F)cc4)c3=O)CC2)o1 [Compound I-315] | 1000 to 10000 nM
15 | O=C(c1ccc(Cl)cc1Cl)N1CCC(O)(Cn2cnc3c(cnn3-c3ccc(F)cc3)c2=O)CC1 [Compound I-317] | 200 to 1000 nM
16 | O=C(C1CC1)N1CCC(O)(Cn2cnc3c(cnn3-c3ccc(-c4cccc(F)c4)cc3)c2=O)CC1 [Compound I-330] | 1000 to 10000 nM
17 | O=C(c1ccc(-c2ccc(-n3ncc4c(=O)n(CC5(O)CCN(C(=O)C6CC6)CC5)cnc43)cc2)cc1)N1CCCC1 [Compound I-333] | 1000 to 10000 nM
18 | O=C(C1CC1)N1CCC(O)(Cn2cnc3c(cnn3-c3cccc(-c4cccc(Cl)c4)c3)c2=O)CC1 [Compound I-347] | 1000 to 10000 nM
19 | CN(C)C(=O)c1ccc(-c2cccc(-n3ncc4c(=O)n(CC5(O)CCN(C(=O)C6CC6)CC5)cnc43)c2)cc1 [Compound I-350] | 1000 to 10000 nM
20 | N#Cc1cccc(-c2cccc(-n3ncc4c(=O)n(CC5(O)CCN(C(=O)C6CC6)CC5)cnc43)c2)c1 [Compound I-359] | 1000 to 10000 nM
21 | CN(C)CCOc1ccc(-c2ccc(-n3ncc4c(=O)n(CC5(O)CCN(C(=O)C6CC6)CC5)cnc43)cc2)cc1 [Compound I-369] | 1000 to 10000 nM
22 | O=C(C1CC1)N1CCC(O)(Cn2cnc3c(cnn3-c3cccc(-c4cccc(O)c4)c3)c2=O)CC1 [Compound I-385] | 1000 to 10000 nM
23 | O=C(C1CC1)N1CCC(O)(Cn2cnc3c(cnn3-c3cccc(-c4cncc(F)c4)c3)c2=O)CC1 [Compound I-387] | 1000 to 10000 nM
24 | O=C(C1CC1)N1CCC(O)(Cn2cnc3c(cnn3-c3ccc(-c4cc(F)ccc4CO)cc3)c2=O)CC1 [Compound I-390] | 1000 to 10000 nM
25 | O=C(C1CC1)N1CCC(O)(Cn2cnc3c(cnn3-c3ccc(-c4cccc(N5CCCC5)c4)cc3)c2=O)CC1 [Compound I-399] | 1000 to 10000 nM
26 | O=C(C1CC1)N1CCC(O)(Cn2cnc3c(cnn3-c3cccc(-c4cc(F)ccc4CO)c3)c2=O)CC1 [Compound I-403] | 1000 to 10000 nM
27 | O=C(C1CC1)N1CCC(O)(Cn2cnc3c(cnn3-c3cccc(-c4cccc5[nH]ccc45)c3)c2=O)CC1 [Compound I-406] | 1000 to 10000 nM
28 | O=C(NCCO)c1cccc(-c2cccc(-n3ncc4c(=O)n(CC5(O)CCN(C(=O)C6CC6)CC5)cnc43)c2)c1 [Compound I-409] | 1000 to 10000 nM
29 | CCN(Cc1ccc(-n2ncc3c(=O)n(CC4(O)CCN(C(=O)C5CC5)CC4)cnc32)cc1)C1CCCCC1 [Compound I-416] | 1000 to 10000 nM
30 | O=C(c1ccc(N2CCOCC2)nc1)N1CCC(O)(Cn2cnc3c(cnn3-c3ccc(F)cc3)c2=O)CC1 [Compound I-419] | 1000 to 10000 nM
31 | O=C(c1ccc(C(F)(F)F)nc1)N1CCC(O)(Cn2cnc3c(cnn3-c3ccc(F)cc3)c2=O)CC1 [Compound I-422] | > 10000 nM
32 | O=C(N1CCC(O)(Cn2cnc3c(cnn3-c3ccc(F)cc3)c2=O)CC1)C12CC(C(F)(F)F)(C1)C2 [Compound I-423] | 1000 to 10000 nM
33 | CNC(=O)N1CCC(O)(Cn2cnc3c(cnn3-c3ccc(-c4ccccc4)cc3)c2=O)CC1 [Compound I-425] | 1000 to 10000 nM
34 | O=C(C1CC1)N1CCC(O)(Cn2cnc3c(cnn3-c3ccc(CN4CCCCC4)cc3)c2=O)CC1 [Compound I-431] | 1000 to 10000 nM

Row | SMILES | IC50
35 | COCCN(C)Cc1ccc(-n2ncc3c(=O)n(CC4(O)CCN(C(=O)C5CC5)CC4)cnc32)cc1 [Compound I-434] | 1000 to 10000 nM
36 | O=C(C1CC1)N1CCC(O)(Cn2cnc3c(cnn3-c3ccc(CN4CCc5ccccc5C4)cc3)c2=O)CC1 [Compound I-437] | 1000 to 10000 nM
37 | CCc1ccc(CN(C)Cc2ccc(-n3ncc4c(=O)n(CC5(O)CCN(C(=O)C6CC6)CC5)cnc43)cc2)cn1 [Compound I-440] | 1000 to 10000 nM
38 | O=C(C1CC1)N1CCC(O)(Cn2cnc3c(cnn3-c3ccc(CN4CCC5(CCOCC5)C4)cc3)c2=O)CC1 [Compound I-443] | 1000 to 10000 nM
39 | N#CC1CCN(Cc2cccc(-n3ncc4c(=O)n(CC5(O)CCN(C(=O)C6CC6)CC5)cnc43)c2)CC1 [Compound I-446] | 1000 to 10000 nM
40 | COCCN(C)Cc1cccc(-n2ncc3c(=O)n(CC4(O)CCN(C(=O)C5CC5)CC4)cnc32)c1 [Compound I-449] | 1000 to 10000 nM
41 | CC(C)CN(C)Cc1cccc(-n2ncc3c(=O)n(CC4(O)CCN(C(=O)C5CC5)CC4)cnc32)c1 [Compound I-452] | 1000 to 10000 nM
42 | CC1(C(=O)N2CCC(O)(Cn3cnc4c(cnn4-c4ccc(F)cc4)c3=O)CC2)CCC1 [Compound I-464] | 200 to 1000 nM
43 | O=C(c1ccc(C2(O)CC2)cc1)N1CCC(O)(Cn2cnc3c(cnn3-c3ccccc3)c2=O)CC1 [Compound I-467] | 1000 to 10000 nM
44 | O=C(c1ccccc1)N1CC[C@](O)(Cn2cnc3c(cnn3-c3ccccc3)c2=O)[C@H](F)C1 [Compound I-469] | 1000 to 10000 nM
45 | CN(C)C(=O)N1CCC(O)(Cn2cnc3c(cnn3-c3ccc(F)c(-c4ccc(F)cc4)c3)c2=O)CC1 [Compound I-475] | 1000 to 10000 nM
46 | CC1(C)CC(NC(=O)N2CCC(O)(Cn3cnc4c(cnn4-c4ccc(F)cc4)c3=O)CC2)C1 [Compound I-482] | > 10000 nM
47 | CN(C)C(=O)Nc1ccc(-n2ncc3c(=O)n(CC4(O)CCN(C(=O)C5CC5)CC4)cnc32)cc1 [Compound I-492] | 1000 to 10000 nM
48 | O=C(C1CC1)N1CCC(O)(Cn2cnc3c(cnn3-c3cccc(N4CCNCC4)c3)c2=O)CC1 [Compound I-498] | < 200 nM
49 | O=C(C1CC1)N1CCC(O)(Cn2cnc3c(cnn3-c3ccc(N4CCNCC4)cc3)c2=O)CC1 [Compound I-499] | 200 to 1000 nM
50 | CN(C)C(=O)N1CCC(O)(Cn2cnc3c(cnn3-c3ccc(Oc4ccccc4)cc3)c2=O)CC1 [Compound I-500] | > 10000 nM
51 | CNS(=O)(=O)Nc1ccc(-n2ncc3c(=O)n(CC4(O)CCN(C(=O)C5CC5)CC4)cnc32)cc1 [Compound I-504, 5-[(1-Cyclopropanecarbonyl-4-hydroxypiperidin-4-yl)methyl]-1-{4-[(methylsulfamoyl)amino]phenyl}-1H,4H,5H-pyrazolo[3,4-d]pyrimidin-4-one] | 1000 to 10000 nM
52 | CN(C)S(=O)(=O)Nc1ccc(-n2ncc3c(=O)n(CC4(O)CCN(C(=O)C5CC5)CC4)cnc32)cc1 [Compound I-505] | 1000 to 10000 nM
53 | CNC(=O)Nc1ccc(-n2ncc3c(=O)n(CC4(O)CCN(C(=O)C5CC5)CC4)cnc32)cc1 [Compound I-506] | 1000 to 10000 nM
54 | CNC(=O)Nc1cccc(-n2ncc3c(=O)n(CC4(O)CCN(C(=O)C5CC5)CC4)cnc32)c1 [Compound I-507] | 1000 to 10000 nM
55 | CN(C)C(=O)N1CCC(O)(Cn2cnc3c(cnn3-c3ccc(N4CCC5(CCNCC5)CC4)cc3)c2=O)CC1 [Compound I-508] | 200 to 1000 nM
56 | O=C(c1cccc(CN2CCCC2)c1)N1CCC(O)(Cn2cnc3c(cnn3-c3ccc(F)cc3)c2=O)CC1 [Compound I-510] | > 10000 nM
57 | CC(CC(=O)N1CCC(O)(Cn2cnc3c(cnn3-c3ccc(F)cc3)c2=O)CC1)n1cccn1 (stereo not shown) [Compound I-513] | 200 to 1000 nM
58 | C[C@@H](CC(=O)N1CCC(O)(Cn2cnc3c(cnn3-c3ccc(F)cc3)c2=O)CC1)n1cccn1 [Compound I-514] | 200 to 1000 nM
59 | C[C@H](CC(=O)N1CCC(O)(Cn2cnc3c(cnn3-c3ccc(F)cc3)c2=O)CC1)n1cccn1 [Compound I-515] | 1000 to 10000 nM
60 | O=C(C[C@H](C(F)F)n1cccn1)N1CCC(O)(Cn2cnc3c(cnn3-c3ccc(F)cc3)c2=O)CC1 [Compound I-517] | 1000 to 10000 nM
61 | O=C(C[C@@H](C(F)F)n1cccn1)N1CCC(O)(Cn2cnc3c(cnn3-c3ccc(F)cc3)c2=O)CC1 [Compound I-518] | < 200 nM
